Measurements published in patent US9267949B2, “Alkylamino BODIPY dyes as selective fluorescent probes for proteins and mouse embryonic stem cells” (National University of Singapore, priority 2011, dated 2016).

How the values were obtained:
[1] = Spectroscopic properties of the BDM library (absorbance and emission maxima); type: physicochemical
[2] = Quantum yield measurements; type: physicochemical; details: referred to Rhodamine B in EtOH, excitation 510 nm, emission integrated 540-800 nm
Experimental: Quantum yields were calculated by measuring the integrated emission area of the fluorescent spectra, and referring them to the area measured for Rhodamine B in EtOH after excitation at 510 nm (ΦRho-B=0.70). Quantum yields for the BDM products were then calculated using equation below, where F represents the area of fluorescent emission, n is reflective index of the solvent, and Abs is absorbance at excitation wavelength selected for standards and samples. Emission was integrated from 540 nm to 800 nm.

λmax (ABS) [1] [nm]	λmax (EM) [1] [nm]	φ (quantum yield) [2]	SMILES
561	586	0.21	COc1cc(/C=C/c2cc(C)c3n2[B-](F)(F)[N+]2=CC=CC2=C3CCN)cc(OC)c1OC [BDM-1]
600	683	0.05	Cc1cc(/C=C/c2ccc(N(C)CCC#N)cc2)n2c1C(CCN)=C1C=CC=[N+]1[B-]2(F)F [BDM-3]
556	567	0.32	Cc1cc(/C=C/c2ccc(Cl)cc2)n2c1C(CCN)=C1C=CC=[N+]1[B-]2(F)F [BDM-12]
593	624	0.02	Cc1cc(/C=C/c2ccc(N(c3ccccc3)c3ccccc3)cc2)n2c1C(CCN)=C1C=CC=[N+]1[B-]2(F)F [BDM-14]
555	569	0.71	Cc1cc(/C=C/c2ccc(C(C)C)cc2)n2c1C(CCN)=C1C=CC=[N+]1[B-]2(F)F [BDM-19]
567	584	0.14	Cc1cc(/C=C/c2ccco2)n2c1C(CCN)=C1C=CC=[N+]1[B-]2(F)F [BDM-22]
553	566	0.39	CC1=CC(/C=C/c2ccccc2)=[N+]2C1=C(CCN)c1cccn1[B-]2(F)F [BDM-27]
596	634	0.11	Cc1cc(/C=C/c2ccc(-c3cccs3)s2)n2c1C(CCN)=C1C=CC=[N+]1[B-]2(F)F [BDM-30]
576	624	0.25	COc1ccc(/C=C/c2cc(C)c3n2[B-](F)(F)[N+]2=CC=CC2=C3CCN)c2ccccc12 [BDM-32]
547	581	0.65	Cc1ccc2cccc(/C=C/c3cc(C)c4n3[B-](F)(F)[N+]3=CC=CC3=C4CCN)c2c1 [BDM-34]
568	595	0.23	Cc1cc(/C=C/c2ccc(C)c3ccccc23)n2c1C(CCN)=C1C=CC=[N+]1[B-]2(F)F [BDM-36]
565	579	0.06	COc1ccc(/C=C/c2cc(C)c3n2[B-](F)(F)[N+]2=CC=CC2=C3CCN)c(Cl)c1O [BDM-38]
554	567	0.53	Cc1cc(/C=C/c2ccccc2-c2ccccc2)n2c1C(CCN)=C1C=CC=[N+]1[B-]2(F)F [BDM-40]
564	579	0.21	Cc1cc(/C=C/c2cc(C(C)(C)C)ccc2O)n2c1C(CCN)=C1C=CC=[N+]1[B-]2(F)F [BDM-43]
564	583	0.74	CCCCCCOc1ccc(/C=C/c2cc(C)c3n2[B-](F)(F)[N+]2=CC=CC2=C3CCN)cc1 [BDM-45]
562	572	0.24	Cc1cc(/C=C/c2ccc(C=O)cc2)n2c1C(CCN)=C1C=CC=[N+]1[B-]2(F)F [BDM-49]
568	600	0.46	CCOc1ccc(/C=C/c2cc(C)c3n2[B-](F)(F)[N+]2=CC=CC2=C3CCN)cc1OCC [BDM-53]
567	594	0.43	COc1ccc(/C=C/C2=[N+]3C(=C(CCN)c4cccn4[B-]3(F)F)C(C)=C2)cc1OC [BDM-62]
589	615	0.15	CC1=CC(/C=C/c2ccc(-c3ccccc3)s2)=[N+]2C1=C(CCN)c1cccn1[B-]2(F)F [BDM-65]
561	575	0.28	CC1=CC(/C=C/c2cc(Br)ccc2O)=[N+]2C1=C(CCN)c1cccn1[B-]2(F)F [BDM-73]
557	569	0.54	CCCc1ccc(/C=C/C2=[N+]3C(=C(CCN)c4cccn4[B-]3(F)F)C(C)=C2)cc1 [BDM-77]
565	582	0.26	CC1=CC(/C=C/c2ccc(OCc3ccccc3)cc2)=[N+]2C1=C(CCN)c1cccn1[B-]2(F)F [BDM-90]
614	699	0.02	CC1=CC(/C=C/c2ccc(N(C)CCO)cc2)=[N+]2C1=C(CCN)c1cccn1[B-]2(F)F [BDM-91]

Continued, molecule first:

SMILES	λmax (ABS) [1] [nm]	λmax (EM) [1] [nm]	φ (quantum yield) [2]
Cc1cc(/C=C/c2ccc(N(C)C)cc2)n2c1C(CCN)=C1C=CC=[N+]1[B-]2(F)F [BDM-2]	607	685	0.01
Cc1cc(/C=C/c2ccc(OCc3ccccc3)c(OCc3ccccc3)c2)n2c1C(CCN)=C1C=CC=[N+]1[B-]2(F)F [BDM-4]	566	590	0.42
Cc1cc(/C=C/c2ccc(-c3ccccc3)cc2)n2c1C(CCN)=C1C=CC=[N+]1[B-]2(F)F [BDM-5]	561	575	0.50
Cc1cc(/C=C/c2c3ccccc3cc3ccccc23)n2c1C(CCN)=C1C=CC=[N+]1[B-]2(F)F [BDM-6]	536	682	0.12
COc1ccc(/C=C/c2cc(C)c3n2[B-](F)(F)[N+]2=CC=CC2=C3CCN)cc1OCc1ccccc1 [BDM-7]	566	591	0.37
Cc1cc(/C=C/c2ccc(-n3ccnc3)cc2)n2c1C(CCN)=C1C=CC=[N+]1[B-]2(F)F [BDM-8]	561	575	0.34
Cc1cccc(/C=C/c2cc(C)c3n2[B-](F)(F)[N+]2=CC=CC2=C3CCN)c1 [BDM-9]	554	567	0.33
Cc1cc(/C=C/c2cc(C)c3n2[B-](F)(F)[N+]2=CC=CC2=C3CCN)cc(C)c1OCc1ccccc1 [BDM-16]	561	574	0.14
CCCCN(CCCC)c1ccc(/C=C/C2=[N+]3C(=C(CCN)c4cccn4[B-]3(F)F)C(C)=C2)cc1 [BDM-17]	622	695	0.03
CSc1ccc(/C=C/c2cc(C)c3n2[B-](F)(F)[N+]2=CC=CC2=C3CCN)cc1 [BDM-18]	567	588	0.33
CC1=CC(/C=C/c2cccc(Oc3ccccc3)c2)=[N+]2C1=C(CCN)c1cccn1[B-]2(F)F [BDM-20]	554	564	0.47
Cc1ccc(O)c(/C=C/c2cc(C)c3n2[B-](F)(F)[N+]2=CC=CC2=C3CCN)c1 [BDM-33]	564	580	0.14
CC1=CC(/C=C/c2csc3ccccc23)=[N+]2C1=C(CCN)c1cccn1[B-]2(F)F [BDM-37]	566	588	0.15
COc1ccc(Oc2cccc(/C=C/c3cc(C)c4n3[B-](F)(F)[N+]3=CC=CC3=C4CCN)c2)cc1 [BDM-42]	554	563	0.25
CCCCOc1ccc(/C=C/c2cc(C)c3n2[B-](F)(F)[N+]2=CC=CC2=C3CCN)cc1 [BDM-46]	564	583	0.53
C=CCOc1ccc(/C=C/c2cc(C)c3n2[B-](F)(F)[N+]2=CC=CC2=C3CCN)cc1 [BDM-48]	563	583	0.83
COc1ccc(Br)cc1/C=C/c1cc(C)c2n1[B-](F)(F)[N+]1=CC=CC1=C2CCN [BDM-54]	559	573	0.52
COc1ccc2ccccc2c1/C=C/C1=[N+]2C(=C(CCN)c3cccn3[B-]2(F)F)C(C)=C1 [BDM-61]	576	610	0.22
CCOc1ccc(/C=C/C2=[N+]3C(=C(CCN)c4cccn4[B-]3(F)F)C(C)=C2)cc1OC [BDM-63]	568	597	0.54
CC1=CC(/C=C/c2ccc(OC(F)(F)F)cc2)=[N+]2C1=C(CCN)c1cccn1[B-]2(F)F [BDM-68]	551	561	0.63
COc1ccc2c(OC)ccc(/C=C/C3=[N+]4C(=C(CCN)c5cccn5[B-]4(F)F)C(C)=C3)c2c1 [BDM-70]	582	642	0.13
CC1=CC(/C=C/c2ccc(OC(C)(C)C)cc2)=[N+]2C1=C(CCN)c1cccn1[B-]2(F)F [BDM-75]	560	585	0.53
CC1=CC(/C=C/c2ccc(N(C)C)cc2[N+](=O)[O-])=[N+]2C1=C(CCN)c1cccn1[B-]2(F)F [BDM-78]	591		0.01
COc1cc(OC)c(/C=C/C2=[N+]3C(=C(CCN)c4cccn4[B-]3(F)F)C(C)=C2)c(OC)c1 [BDM-82]	579	621	0.40
CC1=CC(/C=C/c2ccc(-c3ccccn3)cc2)=[N+]2C1=C(CCN)c1cccn1[B-]2(F)F [BDM-88]	565	576	0.21
CC1=CC(/C=C/c2ccc3c4c(cccc24)CC3)=[N+]2C1=C(CCN)c1cccn1[B-]2(F)F [BDM-89]	576	612	0.30
